Reference: PMC8279406 (Journal of Medicinal Chemistry, 2021)

Tests used:
[1] = tested on: recombinant R8102 HSV-1 strain; assay: Infection neutralization assay, 293T cells, R8102 HSV-1, β-galactosidase readout; assay type: cell-based; details: increasing concentrations, 1 h prior to infection and 90 min during attachment
Excerpt: The binding of HSV-1 gH/gL to either αvβ6 or αvβ8 results in the dissociation of gL from the heterodimer, which, in turn, can favor HSV entry into cells.[27] […] R1.302, a nectin1-neutralizing mAb, was used as a positive control. In the first set of experiments, 293T cells, expressing both the αvβ6 and αvβ8 integrins, were alternatively exposed to increasing concentrations of the integrin-binding peptides and R1.302 before and during the infection by the recombinant R8102 HSV-1 strain. This virion carries, indeed, a lacZ reporter gene under the control of the α27 promoter, whose expression analysis allows for readily quantifying the infectivity.[59] […] Remarkably, these preliminary results were in agreement with the known interchangeable and additive roles played by αvβ6 and αvβ8 integrins upon HSV-1 infection.[26]
Figure 3 Inhibition of HSV-1 infection. 293T cells were exposed to increasing concentrations of the indicated peptides for 1 h prior to infection and during virus attachment for another 90 min. Infection was induced using the recombinant R8102 HSV-1 strain and measured after 8 h as β-galactosidase activity, using o-nitrophenyl-D-galactopyranoside (ONPG) as a substrate. The assays were run in triplicate. Bars show standard deviation (SD).
The experiments were performed using 293T cells in 96-well plates with extracellular virions of R8102 at an input multiplicity of infection of 5 PFU/cell. Cells were exposed to increasing concentrations of the peptides for 1 h at 37 °C, and the viral inoculum was added in the presence of peptides for 90 min at 37 °C. After the removal of the inoculum and rinsing with DMEM containing 1% FBS, the cells were incubated without peptides for 8 h. The same protocol was followed for R1.302 mAb that was used as a positive control. The infection was quantified as β-Gal activity using o-nitrophenyl-D-galactopyranoside (ONPG) as a substrate.[86]

[2] = tested on: recombinant K26GFP HSV-1 strain; assay: Infection neutralization assay, transfected J cells, K26GFP HSV-1, EGFP expression; assay type: cell-based; details: all of the examined J cell samples, 700 μM
Excerpt: To this aim, we selected the J cells, which are negative for gD receptors and therefore cannot be infected by HSV-1 unless gD cognate receptors (i.e., nectin1) are transgenically expressed. […] In particular, J cells were transfected with low amounts of nectin1 plasmid, plus either αvβ6 or αvβ8 integrin plasmid or both, and then infected with the recombinant K26GFP HSV-1 strain. Indeed, the capsid protein ICP26 of this strain is fused to the green fluorescent protein (GFP),[60] whose cellular expression can be used to measure the viral infection. Thus, the K26GFP entry in J cells after compound treatment was evaluated using fluorescent microscopy (Figure 4A–T), and the enhanced green fluorescent protein (EGFP) expression was quantified using flow cytometry as the mean fluorescence intensity (MFI) of gated cells (Figure 4U). […] In parallel, we also evaluated the HSV infection in J cells expressing nectin1 plus either αvβ6 or αvβ8 alone.
J cells were transfected with a low amount (75 ng of DNA/24 well) of nectin1 alone (A–E), or with the same amount of nectin1 plus αvβ6 integrin (300 ng DNA/24 well) (F–J), or plus αvβ8 integrin (300 ng DNA/24 well) (K–O), or plus both the integrin receptors (P–T). […] The cells were infected with K26GFP. The nonpenetrated virus was inactivated by an acid wash. Infectivity was measured at 16 h after infection as EGFP expression. (A)–(T) panels show the EGFP expression in each sample for a typical experiment. (U) K26GFP infection was quantified as EGFP protein expression in the flow cytometry assay as the mean fluorescence intensity (MFI) of gated cells. Histograms represent the average of triplicates ± SD.
In other experiments, J cells were transfected with low amounts of plasmids encoding nectin1 (75 ng of DNA/24 well), plus or minus plasmids encoding αv + β6 or αv + β8 integrins (300 ng of DNA/24 well) or together by means of Lipofect 2000 (Life Technologies). The total amount of transfected plasmid DNA was made equal (675 ng/24 well) by the addition of Erb-2 plasmid DNA. […] Following infection, the unpenetrated virus was inactivated by means of an acid wash (40 mM citric acid, 10 mM KCl, 135 mM NaCl, pH 3),[87] and the cells were incubated for a further 16 h in the absence of the peptides or antibody. The extent of infection was assessed through EGFP expression.
Cytofluorimetric analyses were performed using an AccuriC6 flow cytometer (Becton Dickinson). A least 10 000 events were acquired for each sample. Microphotography of the inhibition experiment was conducted using a Nikon Eclipse Ni microscope.

human αvβ8 integrin = target: T1, human αvβ8 integrin (Homo sapiens, UniProt P06756+P26012); assay: LAP(TGF-β1)-αvβ8 competitive solid-phase ELISA binding assay; details: competitive ELISA, immobilized LAP, soluble integrin
T1 construct: purchased R&D Systems (Biotechne brand) 4135-AV
Experimental: (§1) The affinity and selectivity of the integrin peptide ligands were ascertained according to a modified method previously reported by some of us.[33],[47] The binding was determined in a competitive solid-phase binding assay using extracellular matrix proteins, soluble integrins, and pertinent integrin-specific antibodies in an enzyme-linked immunosorbent assay (ELISA).
The experimental procedure is as described for the αvβ6 assay, except for the following modifications. The plates were coated, washed, and blocked as described above. Soluble integrin αvβ8 was mixed with an equal volume of serially diluted inhibitors resulting in a final integrin concentration of 0.25 μg/mL and 0.0032–10 μM for the inhibitors. The primary and secondary antibodies are the same as in the integrin αvβ6 assay. Visualization and analysis were performed as described above. Each plate contained a linear peptide ([…]) as the internal standard.[3]

human αvβ6 integrin = target: T2, human αvβ6 integrin (Homo sapiens, UniProt P06756+P18564); assay: LAP(TGF-β1)-αvβ6 competitive solid-phase ELISA binding assay; details: immobilized LAP, soluble integrin
T2 construct: using immobilized ECM protein and soluble integrin; purchased R&D Systems (Biotechne brand) 3817-AV
Experimental: as §1
A flat-bottom 96-well ELISA plate was coated overnight at 4 °C with 100 μL/well of 0.4 μg/mL LAP previously diluted in carbonate buffer (15 mM Na2CO3, 35 mM NaHCO3, pH 9.6). Afterward, each well was then washed three times with 200 μL of PBS-T buffer (137 mM NaCl, 2.7 mM KCl, 10 mM Na2HPO4, 2 mM KH2PO4, 0.01% Tween 20, pH 7.4) and blocked for 1 h at room temperature with 150 μL/well TSB buffer (20 mM Tris–HCl, 150 mM NaCl, 1 mM CaCl2, 1 mM MgCl2, 1 mM MnCl2, pH 7.5, 1% BSA). Then, each well was washed three times with 200 μL of PBS-T.
Equal volumes (50 μL) of the internal standard (or test compounds) were mixed with 0.5 μg/mL human integrin αvβ6 (50 μL) giving a final dilution series in TSB buffer of 0.00064–10 μM for the inhibitors and 0.25 μg/mL for integrin αvβ6. These solutions (100 μL/well) were added to the flat-bottom ELISA plate and incubated for 1 h at room temperature. The solutions were discarded from the wells, and the plate was washed three times with PBS-T buffer (3 × 200 μL). […] The solutions were discarded from the wells, and the plate was washed three times with PBS-T (3 × 200 μL). The binding assay was developed by adding 50 μL/well of the 3,3′,5,5′-tetramethylbenzidine (TMB) liquid substrate system and incubating for 1 min at room temperature. The reaction was stopped by adding 50 μL/well of 3 M H2SO4. The peroxidase product formation was detected by measuring the absorbance at […] using a plate reader (Tecan SpectraFLUOR plus, Männedorf, Switzerland). Each compound concentration was tested in duplicate, and the resulting inhibition curves were analyzed using OriginPro 7.5G software; the inflection point describes the IC50 value. Each plate contained a linear peptide ([…]) as the internal standard.[63]

Row | IC50 (human αvβ8 integrin) | IC50 (human αvβ6 integrin) | Structure (SMILES) | effect on HSV-1 infection (in words) [1] | effect on HSV entry (in words) [2]
1 | – | – | CC(C)[C@H]1C(=O)N[C@@H](CCCNC(=N)N)C(=O)NCC(=O)N[C@@H](CC(=O)O)C(=O)N[C@H](Cc2ccccc2)C(=O)N1C [cilengitide, reference compound] | no alteration in the HSV entry process | no effect
2 | 2.25 ± 0.089 µM | 0.105 ± 0.008 µM | CN1C(=O)CC[C@@H](C(N)=O)NC(=O)[C@H](C2CCCCC2)NC(=O)[C@H](CC(=O)O)NC(=O)CNC(=O)[C@@H]1CCCNC(=N)N [compound 2, [(NMe)Arg-Gly-Asp-Chg-Glu]-CONH2] | – | –
3 | 3.32 ± 0.122 µM | 0.211 ± 0.026 µM | CN1CC(=O)N[C@@H](CC(=O)O)C(=O)N[C@@H](C2CCCCC2)C(=O)N[C@H](C(N)=O)CCC(=O)N[C@@H](CCCNC(=N)N)C1=O [compound 3, [Arg-(NMe)Gly-Asp-Chg-Glu]-CONH2] | – | –

Row | Structure (SMILES) | IC50 (human αvβ8 integrin) | IC50 (human αvβ6 integrin) | effect on HSV-1 infection (in words) [1] | effect on HSV entry (in words) [2]
4 | CN1C(=O)[C@H](CC(=O)O)NC(=O)CNC(=O)[C@H](CCCNC(=N)N)NC(=O)CC[C@@H](C(N)=O)NC(=O)[C@@H]1C1CCCCC1 [compound 5, [Arg-Gly-Asp-(NMe)Chg-Glu]-CONH2] | > 5 µM | > 5 µM | – | –
